Consider three compounds from US9475836B2, “Protopanoxadiol derivative, preparation method thereof and application thereof” (SHANG HAI INNOVATIVE RESEARCH CENTER OF TRADITIONAL CHINESE …, priority 2013, dated 2016).

Structures can show the parent of a compound that is named as a salt.

In the assay the test system is CUMS rats. Put plainly: Rat chronic unpredictable mild stress depression model (CUMS) test, sucrose preference. The assay is classed as in vivo, Wistar rats. The note with it: for effect on sucrose water intake of CUMS rats: 0.375 mg/kg. As for the experimental part: Rat Chronic Unpredictable Mild Stress Depression Model (CUMS) Test
Variety: Wistar rats; Sex: male; Body Weight: 200 g.
Compounds I and II (being compounds of Examples 1 and 5 respectively), venlafaxine hydrochloride
Experimental method comprises starting CUMS program after adaptively breeding the rats for 1 week.
1) Sucrose preference experiment: all animals were fed with 1% sucrose water within the first 24 h; during the subsequent 24 h, all the animals were simultaneously fed with 1% sucrose water and common drinking water, then fasted with water deprivation for 23 h. Subsequently sucrose preference experiment was performed: simultaneously feeding the animals with 1% sucrose water and common drinking water, and measuring the drinking amounts of sucrose water and common drinking water for animals in 1 h by weighing the drinking water bottles. The animals were grouped evenly according to the animal body weight, liquid consumption amount and sucrose water consumption, and subjected to chronic unpredictable mild stress stimulation.
2) CUMS experiment: the rats were alternately given tens of stress stimulation factors each week, so that the rats cannot predict the stimulation duration of each stress factor and the stimulation to be given subsequently. The stimulation factor includes: flash stimulation, noise stimulation, rat cage inclination; and strange smell environment feeding, fasting, water deprivation.
3) Detection method comprising: detecting liquid consumption amount after food-fasting and water-deprivation for 21 h each week, recording the body weight, total liquid intake, water intake and sucrose water intake of each animal, and calculating sucrose water preference percentage (preference=(sucrose water intake/total liquid intake)×100%) and sucrose water consumption amount per gram of body weight of each rat.

The mark [1] stands for this setting: 1.5 mg/kg and 0.75 mg/kg, after the fifth week (P<0.01 or 0.05).

Regarding `CC(C)=CCCC(C)(O)C1CCC2(C)C1C(=NO)CC1C3(C)CCC(=NO)C(C)(C)C3CCC12C` (centres unmarked) [Compound I], the “effect on sucrose water intake of CUMS rats” value is given as “not significant”. For the same compound, under setting [1], the “sucrose water intake of CUMS rats as compared to the model group” value is “statistically significant difference”.
The matching figures for `CC(C)(O)C1CCC(C)(C2CCC3(C)C2C(=NO)CC2C4(C)CCC(=NO)C(C)(C)C4CCC23C)O1` (centres unmarked) [Compound II]: “not significant” and “statistically significant difference”.
Consider `COc1ccc(C(CN(C)C)C2(O)CCCCC2)cc1` (centres unmarked) [Venlafaxine, venlafaxine hydrochloride, reference compound], for which, for the setting “20 mg/kg, during the fifth week (P<0.01)”, the “sucrose water intake of CUMS rats as compared to the model group” value is reported as “statistically significant difference”.
